Results reported in patent US4673690A, “Acylated enamides and pharmaceutical compositions containing them” (priority 1982, dated 1987).

Columns and labels:
[1] = tested on: Taper Liver Tumor cancer cells; test: Survival of mice inoculated with Taper Liver Tumor cells (Example 2); format: in vivo; settings: cyclophosphamide alone, intraperitoneal, 48 hours after cancer cells
Protocol: A pharmaceutical composition is prepared by mixing 4 g of para-(methoxyphenylacetyl)-dehydroalanine obtained according to Example 1 and 3.2 g of cyclophosphamide.
One million "Taper Liver Tumor" cancer cells are injected intraperitoneally into a group of 10 mice each weighing about 30 g. 48 hours after this injection, the pharmaceutical composition described above is administered again intraperitoneally, in an amount of 180 mg per kg of mouse.
By way of comparison, a group of 10 similar mice to which likewise one million "Taper Liver Tumor" cancer cells have been administered is subjected solely to administration of cyclophosphamide, by intraperitoneal injection, 48 hours after administration of the cancer cells, and a group of 10 other similar mice, to which, again, one million "Taper Liver Tumor" cancer cells have been administered is not subjected to any further treatment whatsoever.

[2] = tested on: Taper Liver Tumor cancer cells; test: Taper Liver Tumor in mice, variation of the amount of cyclophosphamide (Example 4); format: in vivo, NMRI strain; settings: i.p.
Protocol: One million "Taper Liver Tumor" cancer cells are injected intraperitoneally into groups of twelve adult male mice, NMRI strain, the mice having a body weight of about 30 grams. 48 hours after this injection various pharmaceutical compositions according to the invention are administered, again intraperitoneally, to the mice, the amount of cyclophosphamide present in the composition administered being varied, and compositions only containing cyclophosphamide also being administered.
(§1) Thereafter, three parameters are measured:
(a) the variation of the mean weight of the mice on the fifth day after inoculation of the cancer tumour (V.M.W.)
(§2) (b) the median survival of 12 mice treated with a pharmaceutical composition according to the invention or treated with cyclophosphamide alone (M.S.)
(c) the prolongation of survival of the mice treated with a composition according to the invention relative to comparison mice treated with the same dose of cyclophosphamide (P.S).

[3] = tested on: Taper Liver Tumor cancer cells; test: Taper Liver Tumor in mice, variation of the amount of S 86 (Example 3); format: in vivo, NMRI strain; settings: cyclophosphamide 80 mg/kg alone, i.p.
Protocol: One million "Taper Liver Tumor" cancer cells are injected intraperitoneally into groups of twelve adult male mice, NMRI strain, the mice having a body weight of about 30 grams. 48 hours after this injection various pharmaceutical compositions according to the invention are administered, again intraperitoneally, to the mice, the amount of para-(methoxyphenylacetyl)-dehydroalanine present in the composition administered being varied, and compositions only containing cyclophosphamide also beino administered.
as §1
(a) the variations of the mean weight of the mice on the fifth day after inoculation of the cancer tumour (V.M.W.)
as §2
(c) the prolongation of survival of the mice treated with a composition according to the invention relative to comparison mice treated with cyclophosphamide alone (P.S.).

Solubility = format: physicochemical
[4] = Lethal dose (LD50) in the mouse; settings: in vivo
Text: The results obtained are listed in the table below, the para-(methoxyphenylacetyl)-dehydroalanine being referred to by the code S 86.

cytochrome P450 = test: Toxicity of doxorubicin in vivo: content of cytochrome P450 in the liver; design: species or system rats
Protocol: (§3) On the other hand the drop in benzo(a)pyrene hydroxylase activity is no more than 20% and the decrease in aldrin mono-oxygenase activity is reduced to 40%.
(§4) A single dose (10 mg/kg) of a composition containing equal amounts by weight of doxorubicin and of para-(methoxyphenylacetyl)-dehydroalanine was injected into rats. A 60% increase in the minimum content of cytochrome P450, a 20% increase in the benzo(a)pyrene hydroxylase activity and a 5% decrease in the aldrin mono-oxygenase activity were observed.

[5] = tested on: benzo(a)pyrene hydroxylase; test: Toxicity of doxorubicin in vivo: benzo(a)pyrene hydroxylase activity in the liver; design: species or system rats
Protocol: as §3, §4

aldrin mono-oxygenase = test: Toxicity of doxorubicin in vivo: aldrin mono-oxygenase activity in the liver; design: species or system rats; settings: rat
Protocol: as §3, §4

L311 leukaemia cells = test: Survival of rats inoculated with L311 leukaemia cells (Example 6); format: in vivo, LOU/2 strain; settings: doxorubicin alone, intraperitoneal
Protocol: A pharmaceutical composition is prepared by mixing 4 g of para-(methoxyphenylacetyl)-dehydroalanine obtained according to Example 1 and 0.2 g of doxorubicin.
One million L311 leukaemia cells are injected intraperitoneally into a group of six rats, LOU/2 strain, the mean body weight of the rats being 160 g. L311 leukaemia is a tumour transplantable in rats of strain LOU/2, the tumour being described in the article by C. Deckers, F. Mare, L. Deckers-Passeu and A. Trouet, Adriamycin Review, Part I, 1973, pages 79 to 86.
48 hours after this injection the pharmaceutical composition described above is administered to the rats, again intraperitoneally, in an amount of 105 mg per kg of rat.
By way of comparison, a group of twelve similar rats to which one million L311 leukaemia cells have also been administered is subjected solely to intraperitoneal administration of doxorubicin 48 hours after the administration of the L311 leukaemia cells, and a group of twelve similar rats to which one million L311 leukaemia cells have also been administered is given no subsequent treatment whatsoever.

[6] = cyclophosphamide 80 mg/kg alone
[7] = cyclophosphamide 180 mg/kg alone
[8] = cyclophosphamide 360 mg/kg alone
[9] = cyclophosphamide 450 mg/kg alone
[10] = cyclophosphamide 540 mg/kg alone
[11] = single dose of doxorubicin 10 mg/kg, subcutaneous, rat liver

## O=P1(N(CCCl)CCCl)NCCCO1 (stereo not shown) [Cyclophosphamide, cyclophosphamide]
[1]
  all die between (day of death): twenty-second day and the twenty-fifth day
[2]; [6]
  median survival (M.S.): 21 days
  variation of the mean weight of the mice on the fifth day (V.M.W.): -2.2
[2]; [7]
  median survival (M.S.): 23 days
  variation of the mean weight of the mice on the fifth day (V.M.W.): -4.4
[2]; [8]
  median survival (M.S.): 31 days
  variation of the mean weight of the mice on the fifth day (V.M.W.): -6.6
[2]; [9]
  median survival (M.S.): 20 days
  variation of the mean weight of the mice on the fifth day (V.M.W.): -14
[2]; [10]
  median survival (M.S.): 12 days
  variation of the mean weight of the mice on the fifth day (V.M.W.): -18.6
[3]
  median survival (M.S.): 24 days
  variation of the mean weight of the mice on the fifth day (V.M.W.): -1

## C=C(NC(=O)Cc1ccc(OC)cc1)C(=O)O [S 86, para-(methoxyphenylacetyl)-dehydroalanine]
Solubility
  solubility of the product: low solubility
[4]
  LD50: > 400 mg/kg

## NCCS [cysteamine]
Cytochrome P450; rat, in vivo
  protection against the effect of doxorubicin on the level of cytochrome P450: does not protect
[5]; rat, in vivo
  drop in benzo(a)pyrene hydroxylase activity: no more than 20%
Aldrin mono-oxygenase
  decrease in aldrin mono-oxygenase activity: 40%

## COc1cccc2c1C(=O)c1c(O)c3c(c(O)c1C2=O)C[C@@](O)(C(=O)CO)C[C@@H]3O[C@H]1C[C@H](N)[C@H](O)[C@H](C)O1 [doxorubicin]
L311 leukaemia cells
  first death after administration of the leukaemia cells: sixteen
L311 leukaemia cells; 48 hours after leukaemia cells
  mean length of survival after administration of the leukaemia cells: 27.6 days
Cytochrome P450; [11]
  reduction in the minimum content of cytochrome P450: 20%
[5]; [11]
  benzo(a)pyrene hydroxylase activity (in words): a drop in benzo(a)pyrene hydroxylase activity
